Drawing on ChEMBL document CHEMBL6092164, “Rational design, synthesis, and biophysical characterization of a peptidic MDM2-MDM4 interaction inhibitor” (Bioorg Med Chem, 2024), this text covers Kd for 2 substances.

A value given as a limit tells only on which side of the number the result lay.

The target in this assay is E3 ubiquitin-protein ligase Mdm2 (Homo sapiens, UniProt Q00987). The assay can be described thus: Binding affinity to RED dye fluorescently labelled full length human recombinant GST-tagged MDM2 expressed in Escherichia coli BL21 cells assessed as dissociation constant incubated for 60 mins in dark by Microscale Thermophoresis assay.
Chain of E3 ubiquitin-protein ligase Mdm2 (Q00987 whole entry): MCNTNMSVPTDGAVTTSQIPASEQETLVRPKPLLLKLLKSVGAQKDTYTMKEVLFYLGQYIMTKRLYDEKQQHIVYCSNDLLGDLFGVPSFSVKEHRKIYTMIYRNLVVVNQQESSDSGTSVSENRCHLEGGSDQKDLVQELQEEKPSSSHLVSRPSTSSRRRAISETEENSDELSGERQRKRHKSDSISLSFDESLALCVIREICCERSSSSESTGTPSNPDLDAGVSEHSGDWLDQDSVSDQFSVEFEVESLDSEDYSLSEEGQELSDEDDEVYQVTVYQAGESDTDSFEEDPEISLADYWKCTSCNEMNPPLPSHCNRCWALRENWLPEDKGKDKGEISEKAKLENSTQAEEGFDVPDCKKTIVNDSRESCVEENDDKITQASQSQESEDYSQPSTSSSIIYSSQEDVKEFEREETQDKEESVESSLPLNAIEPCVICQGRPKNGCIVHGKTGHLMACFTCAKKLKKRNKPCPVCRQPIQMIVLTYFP

For the substance H-KVFIA-OH, the Kd came out at 19.2 µM. Regarding H-VAIKF-OH, the Kd was above 1000 µM.

Usually Kd stands for the free concentration of one partner at which half of the binding sites on the other are occupied at equilibrium, for simple one-to-one binding.
